The ED50 is the dose at which the effect has come halfway, by size or by number of responders. A high value points to weaker potency.

Molecules are shown by their SMILES.

This note sets out measurements from patent US5382586A, “Aryl (or heteroaryl)piperazinylalkylazole derivatives, their preparation and their application as medicaments” (priority 1991, dated 1995).

Assay [1] relates to conditioned avoidance response in male Wistar rats. Nature of the assay: conditioned avoidance response test (inhibition of the conditioned avoidance response; anxiolytic/tranquillising activity). Conditions: rat. Format: in vivo, rat (male Wistar). An outline of the steps: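 Male Wistar rats (200 g) trained over three days in a shuttle box to jump a barrier within 30 s to avoid foot shock (5 mA); only rats meeting a training score threshold used. Compound or vehicle given orally 45 min before testing; suppression of conditioned avoidance recorded.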

In assay [2] the test system is norepinephrine-induced death in rats. In words: norepinephrine antagonism test in rats (antihypertensive activity). Format: in vivo, rat (male Wister). To be noted: D = 40 mg/kg, i.p.; rat; norepinephrine 1.25 mg/kg i.v. after 2 hours. Here is the method:
This activity is manifested by the protection of animals before death induced by an intravenous injection of norepinephrine, which produces a hypertensive attack in rats.
Male Wister rats weighing 200 grammes are used in this test. The product to be studied is administered intraperitoneally and 1.25 mg/kg (i.v.) of norepinephrine are administered after 2 hours.
The initial administration dose in these studies is 40 mg/kg (i.p.).

`Cc1nc(Cl)c(Cl)n1CCCCN1CCN(c2ncccn2)CC1.O=C(O)CC(O)(CC(=O)O)C(=O)O` [Example 42, 4,5-dichloro-2-methyl-1-{4-[4-(2-pyrimidinyl)-1-piperazinyl]-butyl}-1H-imidazole citrate]: in assay [1] (D = 80 mg/kg, p.o., 45 min before test), the “Activity % (inhibition of the conditioned avoidance response)” value came out at 82%. This compound also displayed a 50% effective dose (ED50) in assay [1] (po, 0.75 h) of 24.5 mg/kg. The “Activity % (norepinephrine antagonistic antihypertensive activity)” value in assay [2] came to 0%.
